Data published in patent publication US9695155B2, “Herbicidal substituted pyrimidinyloxy benzene compounds” (E. I. DU PONT DE NEMOURS AND COMPANY, priority 2013, dated 2017).

Experiments:
fall panicum = test: Test E postemergence; type: in vivo, Panicum dichotomiflorum
Text: (§1) Seeds of plant species selected from corn (Zea mays), soybean (Glycine max), velvetleaf (Abutilon theophrasti), lambsquarters (Chenopodium album), wild poinsettia (Euphorbia heterophylla), palmer pigweed (Amaranthus palmeri), waterhemp (common waterhemp, Amaranthus rudis), surinam grass (Brachiaria decumbens), large (Lg) crabgrass (Digitaria sanguinalis), Brazilian crabgrass (Digitaria horizontalis), fall panicum (Panicum dichotomiflorum), giant foxtail (Setaria faberii), green foxtail (Setaria viridis), goosegrass (Eleusine indica), johnsongrass (Sorghum halepense), ragweed (common ragweed, Ambrosia elatior), barnyardgrass (Echinochloa crus-galli), sandbur (southern sandbur, Cenchrus echinatus), arrowleaf sida (Sida rhombifolia), Italian ryegrass (Lolium multiflorum), dayflower (Virginia (VA) dayflower, Commelina virginica), field bindweed (Convolvulus arvensis), morningglory (Ipomoea coccinea), nightshade (eastern black nightshade, Solanum ptycanthum), kochia (Kochia scoparia), yellow nutsedge (Cyperus esculentus), cocklebur (common cocklebur, Xanthium strumarium), smartweed (ladysthumb smartweed, and hairy beggarticks (Bidens pilosa), were planted into a silt loam soil and treated preemergence with test chemicals formulated in a non-phytotoxic solvent mixture which included a surfactant.
(§2) At the same time, plants from these crop and weed species and also horseweed (Canada horseweed, Conyza canadensis), waterhemp_RES1, (ALS & Triazine resistant common waterhemp, Amaranthus rudis), and waterhemp_RES2, (ALS & HPPD resistant common waterhemp, Amaranthus rudis) were planted in pots containing Redi-Earth® planting medium (Scotts Company, 14111 Scottslawn Road, Marysville, Ohio 43041) comprising spaghnum peat moss, vermiculite, wetting agent and starter nutrients were treated with postemergence applications of test chemicals formulated in the same manner. Plants ranged in height from 2 to 18 cm for postemergence treatments (1- to 4-leaf stage). Treated plants and controls were maintained in a greenhouse for 14 to 21 days, after which time all species were compared to controls and visually evaluated. Plant response ratings, summarized in Table E, are based on a scale of 0 to 100 where 0 is no effect and 100 is complete control. A dash (-) response means no test result.

sandbur = test: Test E postemergence; type: in vivo, Cenchrus echinatus
Text: as §1, §2

green foxtail [1] = test: Test D preemergence; type: in vivo, Setaria viridis; settings: Setaria viridis, pre-emergence
Summary of the method: (§3)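 Visual ratings from 0 (no effect) to 100 (complete control) relative to untreated plants were taken 7–21 days after treatment. Chemicals in a surfactant-containing solvent mixture were applied preemergence to seeds in silt loam, or postemergence to plants 2–18 cm tall (1–4 leaves) grown in a peat-based potting medium.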

oilseed rape = test: Test D preemergence; type: in vivo, Brassica napus; settings: Brassica napus, pre-emergence
Summary of the method: as §3

chamomile = test: Test D preemergence; type: in vivo, Matricaria inodora; settings: Tripleurospermum inodorum, pre-emergence
Summary of the method: as §3

bromegrass, downy = test: Test D postemergence; type: in vivo, Bromus tectorum; settings: Bromus tectorum, post-emergence, Postemergence, scale 0 to 100 (0 no effect, 100 complete control), read-out: Plant response rating, Bromegrass, Downy
Summary of the method: as §3

green foxtail [2] = test: Test D postemergence; type: in vivo, Setaria viridis; settings: Setaria viridis, post-emergence
Summary of the method: as §3

lambsquarters = test: Test D postemergence; type: in vivo, Chenopodium album; settings: Chenopodium album, post-emergence
Summary of the method: as §3

pigweed = test: Test D postemergence; type: in vivo, Amaranthus retroflexus; settings: Amaranthus retroflexus, post-emergence
Summary of the method: as §3

wild mustard = test: Test D postemergence; type: in vivo, Sinapis arvensis; settings: Brassica, post-emergence
Summary of the method: as §3

wild radish = test: Test D postemergence; type: in vivo, Raphanus raphanistrum; settings: Raphanus raphanistrum, post-emergence
Summary of the method: as §3

windgrass = test: Test D postemergence; type: in vivo, Apera spica-venti; settings: Apera spica-venti, post-emergence
Summary of the method: as §3

[3] = Postemergence, 31 g ai/ha, scale 0 to 100
[4] = Postemergence, 62 g ai/ha, scale 0 to 100
[5] = Postemergence, 125 g ai/ha, scale 0 to 100
[6] = postemergence, 8 g ai/ha, scale 0 to 100, 0 no effect, 100 complete control
[7] = postemergence, 16 g ai/ha, scale 0 to 100, 0 no effect, 100 complete control

Clc1cnc(Oc2cccc(Br)c2-n2cc(Br)cn2)nc1 [Compound 65]
Plant response rating, Panicum, Fall (fall panicum; [3]): 5 | Plant response rating, Panicum, Fall (fall panicum; [4]): 0 | Plant response rating, Panicum, Fall (fall panicum; [5]): 15 | Plant response rating, Panicum, Fall (fall panicum; [6]): 0 | Plant response rating, Panicum, Fall (fall panicum; [7]): 0 | Plant response rating, Sandbur (sandbur; [3]): 0 | Plant response rating, Sandbur (sandbur; [4]): 0 | Plant response rating, Sandbur (sandbur; [5]): 0 | Plant response rating, Sandbur (sandbur; [6]): 0 | Plant response rating, Sandbur (sandbur; [7]): 0

FC(F)(F)c1cn(-c2ccccc2Oc2ncc(Cl)cn2)nn1 [Compound 166, 5-chloro-2-[2-[4-(trifluoromethyl)-1H-1,2,3-triazol-1-yl]phenoxy]pyrimidine]
pest or weed control at 16 g/ha (green foxtail [1]; 16 g ai/ha, scale 0 (no effect) to 100 (complete control), read-out: Plant response rating, Foxtail, Green): 25% | pest or weed control at 31 g/ha (green foxtail [1]; 31 g ai/ha, scale 0-100, read-out: Plant response rating, Foxtail, Green): 65% | pest or weed control at 62 g/ha (green foxtail [1]; 62 g ai/ha, scale 0-100, read-out: Plant response rating, Foxtail, Green): 100% | pest or weed control at 125 g/ha (green foxtail [1]; 125 g ai/ha, scale 0-100, read-out: Plant response rating, Foxtail, Green): 100% | plant injury at 16 g/ha (oilseed rape; 16 g ai/ha, scale 0 (no effect) to 100 (complete control), read-out: Plant response rating, Oilseed Rape): 35% | plant injury at 31 g/ha (oilseed rape; 31 g ai/ha, scale 0-100, read-out: Plant response rating, Oilseed Rape): 50% | plant injury at 62 g/ha (oilseed rape; 62 g ai/ha, scale 0-100, read-out: Plant response rating, Oilseed Rape): 100% | plant injury at 125 g/ha (oilseed rape; 125 g ai/ha, scale 0-100, read-out: Plant response rating, Oilseed Rape): 100% | pest or weed control at 16 g/ha (chamomile; 16 g ai/ha, scale 0 (no effect) to 100 (complete control), read-out: Plant response rating, Chamomile): 5% | pest or weed control at 31 g/ha (chamomile; 31 g ai/ha, scale 0-100, read-out: Plant response rating, Chamomile): 25% | pest or weed control at 62 g/ha (chamomile; 62 g ai/ha, scale 0-100, read-out: Plant response rating, Chamomile): 50% | pest or weed control at 125 g/ha (chamomile; 125 g ai/ha, scale 0-100, read-out: Plant response rating, Chamomile): 55% | pest or weed control at 16 g/ha (bromegrass, downy; 16 g ai/ha): 15% | pest or weed control at 31 g/ha (bromegrass, downy; 31 g ai/ha): 20% | pest or weed control at 62 g/ha (bromegrass, downy; 62 g ai/ha): 35% | pest or weed control at 125 g/ha (bromegrass, downy; 125 g ai/ha): 50% | pest or weed control at 16 g/ha (green foxtail [2]; 16 g ai/ha, scale 0-100, read-out: Plant response rating, Foxtail, Green): 10% | pest or weed control at 31 g/ha (green foxtail [2]; 31 g ai/ha, scale 0 to 100 (0 no effect, 100 complete control), read-out: Plant response rating, Foxtail, Green): 15% | pest or weed control at 62 g/ha (green foxtail [2]; 62 g ai/ha, scale 0 to 100 (0 no effect, 100 complete control), read-out: Plant response rating, Foxtail, Green): 20% | pest or weed control at 125 g/ha (green foxtail [2]; 125 g ai/ha, scale 0 to 100 (0 no effect, 100 complete control), read-out: Plant response rating, Foxtail, Green): 35% | pest or weed control at 16 g/ha (lambsquarters; 16 g ai/ha, scale 0-100, read-out: Plant response rating, Lambsquarters): 80% | pest or weed control at 31 g/ha (lambsquarters; 31 g ai/ha, scale 0 to 100 (0 no effect, 100 complete control), read-out: Plant response rating, Lambsquarters): 90% | pest or weed control at 62 g/ha (lambsquarters; 62 g ai/ha, scale 0 to 100 (0 no effect, 100 complete control), read-out: Plant response rating, Lambsquarters): 95% | pest or weed control at 125 g/ha (lambsquarters; 125 g ai/ha, scale 0 to 100 (0 no effect, 100 complete control), read-out: Plant response rating, Lambsquarters): 95% | pest or weed control at 16 g/ha (pigweed; 16 g ai/ha, scale 0-100, read-out: Plant response rating, Pigweed): 80% | pest or weed control at 31 g/ha (pigweed; 31 g ai/ha, scale 0 to 100 (0 no effect, 100 complete control), read-out: Plant response rating, Pigweed): 85% | pest or weed control at 62 g/ha (pigweed; 62 g ai/ha, scale 0 to 100 (0 no effect, 100 complete control), read-out: Plant response rating, Pigweed): 95% | pest or weed control at 125 g/ha (pigweed; 125 g ai/ha, scale 0 to 100 (0 no effect, 100 complete control), read-out: Plant response rating, Pigweed): 95% | pest or weed control at 16 g/ha (wild mustard; 16 g ai/ha, scale 0-100, read-out: Plant response rating, Mustard, Wild): 75% | pest or weed control at 31 g/ha (wild mustard; 31 g ai/ha, scale 0 to 100 (0 no effect, 100 complete control), read-out: Plant response rating, Mustard, Wild): 80% | pest or weed control at 62 g/ha (wild mustard; 62 g ai/ha, scale 0 to 100 (0 no effect, 100 complete control), read-out: Plant response rating, Mustard, Wild): 85% | pest or weed control at 125 g/ha (wild mustard; 125 g ai/ha, scale 0 to 100 (0 no effect, 100 complete control), read-out: Plant response rating, Mustard, Wild): 100% | pest or weed control at 16 g/ha (wild radish; 16 g ai/ha, scale 0-100, read-out: Plant response rating, Radish, Wild): 70% | pest or weed control at 31 g/ha (wild radish; 31 g ai/ha, scale 0 to 100 (0 no effect, 100 complete control), read-out: Plant response rating, Radish, Wild): 70% | pest or weed control at 62 g/ha (wild radish; 62 g ai/ha, scale 0 to 100 (0 no effect, 100 complete control), read-out: Plant response rating, Radish, Wild): 95% | pest or weed control at 125 g/ha (wild radish; 125 g ai/ha, scale 0 to 100 (0 no effect, 100 complete control), read-out: Plant response rating, Radish, Wild): 95% | pest or weed control at 16 g/ha (windgrass; 16 g ai/ha, scale 0-100, read-out: Plant response rating, Windgrass): 15% | pest or weed control at 31 g/ha (windgrass; 31 g ai/ha, scale 0 to 100 (0 no effect, 100 complete control), read-out: Plant response rating, Windgrass): 25% | pest or weed control at 62 g/ha (windgrass; 62 g ai/ha, scale 0 to 100 (0 no effect, 100 complete control), read-out: Plant response rating, Windgrass): 35% | pest or weed control at 125 g/ha (windgrass; 125 g ai/ha, scale 0 to 100 (0 no effect, 100 complete control), read-out: Plant response rating, Windgrass): 55%
